Laboratory results from patent US7531500B2, “Preventing airway mucus production by administration of EGF-R antagonists” (The Regents of the University of California, priority 1998, dated 2009).

What was measured:
[1] = test system: NCI-H292 cells; assay: Alcian blue/PAS staining of NCI-H292 cells for mucin glycoproteins; type: cell-based, human; conditions: TNFα 20 ng/ml; EGF, TGFα each 25 ng/ml
Description: (§1) Cell culture. A human pulmonary mucoepidermoid carcinoma cell line, NCI-H292 cells, were grown in RPMI11640 medium containing 10% fetal bovine serum, penicillin (100 U/ml), streptomycin (100 μg/ml) at 37° C. in a humidified 5% CO2 water-jacketed incubator. […] In inhibition studies with an EGF-R tyrosine kinase inhibitor, BIBX1522 (10 μg/ml, generously provided by Boehringer Ingelheim Inc., Ingelheim, Germany), cells were pretreated with BIBX1522 30 min before adding growth factors. After incubation, cells grown in a T-75 flask were used for total RNA extraction or protein extraction, and 8-chamber slides were used for Alcian blue/PAS-staining to visualize mucins.

[2] = test system: NCI-H292 cells; assay: Northern analysis for MUC5 gene expression in NCI-H292 cells; type: cell-based, human; conditions: EGF or TGFα 25 ng/ml, TNFα 20 ng/ml; 12 h, 24 h
Description: as §1

[3] = test system: pathogen-free rats; assay: Goblet cell production in pathogen-free rats after tracheal instillation of TNFα and EGF-R ligands; type: in vivo, rat
Description: Healthy rats. Rats were anesthetized with methohexital sodium (Brevital sodium, 50 mg/kg, i.p.; Eli Lilly & Co., Indianapolis, Ind.) and allowed to breathe spontaneously. […] In each study, sterile PBS (100 μl) was instilled into the trachea as control. […] Rats were pretreated with BIBX1522 (3, 10 or 30 mg/kg, i.p.), 1 h before and 24 h after instillation of TGFα. The trachea and lungs were removed for examination 48 h after the instillation of TGFα.
Tissue preparation. At preselected times during anesthesia, the systemic circulation was perfused with 1% paraformaldehyde in DEPC-treated PBS at a pressure of 120 mmHg. The trachea was then removed and placed in 4% paraformaldehyde for 24 h. After fixation, trachea and lungs were embedded in either JB-4 plus monomer solution A for cell analysis or O.C.T. compound (Sakura Finetek U.S.A., Inc., Torrance, Calif.) for immunohistochemistry and in situ hybridization. The embedded tissues were cut as cross sections ([…] thick) and placed on slides.
Cell analysis. We counted the total number of epithelial cells by counting epithelial cell nuclei over 2 mm of the basal lamina with an oil immersion objective lens (×1000 magnification). The linear length of the basal lamina under each analyzed region of epithelium was determined by tracing the contour of the digitized image of the basal lamina. After instillation of stimuli, “developing” goblet cells form. These cells have Alcian blue/PAS-positive granules, but the size of granules is small, and the number of cytoplasmic granules is few. We call these “developing” goblet cells “pre-goblet cells”, a stage before cells become mature goblet cells. Goblet cells are tall, cuboidal, goblet to low columnar in shape, with abundant Alcian blue/PAS-stained granules filling most of the cytoplasm between the nucleus and the luminal surface. Pre-goblet cells are defined as cells with smaller mucus-stained areas (<1/3 height in epithelium from basement membrane to luminal surface) or with sparsely and lightly Alcian blue/PAS-stained, small granules. Ciliated cells are recognized by their ciliated borders, lightly stained cytoplasm, and large round nuclei. Non-granulated secretory cells are columnar in shape and extend from the lumen to the basal lamina. The cytoplasm stains light pink color, and a few tiny PAS-positive and Alcian blue-negative granules are observed in the cytoplasm. Basal cells are small flattened cells with a large nucleus, located just above the basal lamina but not reaching the airway lumen.
Quantification of goblet cell production. Goblet cell production, was determined by the volume density of Alcian blue/PAS-stained mucosubstances on the mucosal surface epithelium using a semi-automatic imaging system described elsewhere (Weber et al. (1984) Science 224:294-297). We measured the Alcian blue/PAS-positive stained area and the total epithelial area and expressed the data as the percentage of the total area stained by Alcian blue-PAS. The analysis was performed with the public domain NIH Image program (developed at the U.S. National Institute of Health and available from the Internet by anonymous FTP from zippy.nimh.gov or on floppy disk from the National Technical Information Service, Springfield, Va., part number PB95-500195GEI).
Immunohistochemical localization of EGF-R in rat epithelium. The localization of EGF-R was examined using immunchistochemical staining with an antibody to EGF-R (Calbiochem, San Diego, Calif.) in frozen sections of rat trachea. After perfusion with 1% paraformaldehyde in PBS, tissues were placed in 4% paraformaldehyde in PBS for 1 h and then removed in 30% sucrose for cryoprotection overnight. Tracheas were embedded in O.C.T. compound (Sakura Finetek U.S.A., Inc., Torrance, Calif.) and frozen. Frozen sections (5 μm) were cut and placed on glass slides (Superfrost Plus, Fisher Scientific, Pittsburgh, Pa.). Immunostaining was performed similarly to the in vitro studies.

TGFα: transforming growth factor alpha, EGF-R ligand (recombinant human; rat synthetic in vivo)
PAS-positive staining on incubation with mediator [1]: increased PAS-positive staining
MUC5 gene expression on incubation with mediator [2]: clearly expressed at 24 h
Goblet cells in tracheal epithelium ([3]; TGFα 250 ng alone or 24 h after TNFα 200 ng, i.t., 48 h later, counted over 2 mm basal lamina, mean ± SEM, 5 rats): 5.8 ± 1.2
% of AB/PAS-stained area ([3]; as E9): 6.8 ± 1.9%
Basal cells in tracheal epithelium ([3]; as E9): 56.8 ± 2.3
Ciliated cells in tracheal epithelium ([3]; as E9): 54.6 ± 2.3
Indeterminate cells in tracheal epithelium ([3]; as E9): 2.0 ± 0.4
Pre-goblet cells in tracheal epithelium ([3]; as E9): 12.8 ± 1.6
Secretory cells in tracheal epithelium ([3]; as E9): 72.2 ± 4.0
Total cells in tracheal epithelium ([3]; as E9): 204.2 ± 3.3
